Consider four compounds from paper PMC11053681, “Gold(I) and Silver(I) Complexes Containing Hybrid Sulfonamide/Thiourea Ligands as Potential Leishmanicidal Agents” (Pharmaceutics, 2024).

One data set concerns Leishmania braziliensis. Description: Leishmanicidal activity against promastigotes (resazurin). Conditions: for IC50: promastigote form, 24 h treatment, resazurin, read-out: IC50 L. braziliensis; for SI L. braziliensis: selectivity index = CC50 (Vero) / IC50 (L. braziliensis promastigotes). Type of data set: cell-based. As to the method: (§1) The Leishmania infantum and Leishmania braziliensis strains were maintained in Schneider medium supplemented with 20% of SFB (Schneider 20%), cultivated in […] bottles and stored at 28 °C in a BOD oven. For the assays, parasites at the 5th day stationary growth phase were used.
(§2) The promastigotes metacyclic form of Leishmania infantum and Leishmania braziliensis were first filtered with an insulin syringe to break up rosettes and, then, were isolated from the culture in the stationary phase by centrifugation of 400× g for 4 min at a temperature of 4 °C [53]. The supernatant was subjected to a new centrifugation, heavier, of 2000× g for 30 min, also at 4 °C. The supernatant was discarded and the cell pallet formed from this centrifugation was resuspended in 10 mL of 10% Schneider medium. The process ensured the removal of cellular debris and dead parasites, as well as possible crystals from the culture medium, so that the quality of the experiment was guaranteed. Then, the promastigotes were diluted to 1:10 in paraformaldehyde (PFA) for counting in a Neubauer Chamber, with the concentrations adjusted for each experiment.
(§3) An amount of 1 × 10^7 parasites per well was used. The parasites were plated in 96-well plates. Then, the compounds were added in triplicate, starting at a concentration of 500 µM, with serial dilutions being performed up to a concentration of 3.9 µM [53]. The treatment was carried out for 24 h and, after adding 5 µL of resazurin, the fluorescence was read using a Enspire model spectrofluorometer (Perkin-Elmer, Waltham, MA, USA).

The test system of another data set is Leishmania infantum. The description is as above. The format is cell-based. The settings on record: for IC50: promastigote form, 24 h treatment, resazurin, read-out: IC50 L. infantum; for SI L. infantum: selectivity index = CC50 (Vero) / IC50 (L. infantum promastigotes). How it is done:
as §1, §2, §3
A general note: The colour change of resazurin is a common sign of viable cells or microbes.

Data set [1] is described as follows: Solubility in buffer for the fluorescence experiments. The format is physicochemical. Conditions: Tris-HCl buffer. How it is done: (§4) The compounds were solubilized in DMSO and then we made successive dilutions in a Tris-HCl 25 mmol L^−1 buffer, pH 8.0, containing 100 mmol L^−1 of NaCl. For all experiments, the final concentration of DMSO was kept constant and equal to 2.5%. Solutions with increasing concentrations of ligand and constant concentration of LbOYE (1 µmol L^−1) were prepared, which were kept at 25 °C for a period of 1h before acquisition of fluorescence emission spectra.
After the synthesis and structural characterization of the compounds, studies of interaction of the compounds and the recombinant LbOYE were carried out by fluorescence measurements.

The subject of data set [2] is Vero cells. Description: Cytotoxicity assay on Vero cells (resazurin). The format is cell-based, African green monkey. The settings on record: 24 h treatment. As to the method:
For the experiment, Vero cells (ATCC CRL-1587) were used in Roswell Parl Memorial Institute (RPMI) medium with 10% fetal bovine serum (FBS) (RPMI 10%) and 20 μg/mL of Gentamicin. They were cultivated in culture bottles of […] and kept in an oven at 37 °C with 5% carbon dioxide (CO2). When picked or used on the day of the experiment, the cells were detached from the wall of the bottles with saline and 1X trypsin/EDTA. To find out how many cells there were in the bottle, it was diluted in Turkey liquid and then we proceeded with the counting in the Neubauer Chamber to calculate the desired concentrations. The Vero cells were plated at […] cells per well, in 96-well plates, and kept in an incubator with 5% CO2 at 37 °C for 24 h. Then, the compounds were added in triplicate, starting at a concentration of 500 µM, with serial dilution being performed up to a concentration of 3.9 µM [54]. The treatment was carried out for 24 h, and, after adding 5 µL of resazurin, the fluorescence was read using a spectrofluorometer (EnSpire Perkin-Elmer, Waltham, MA, USA).

Data set [3] has as its target T1, LbOYE (Leishmania braziliensis, UniProt A4H6Z3). The data set is described as follows: LbOYE enzyme kinetics (NADPH decay at 340 nm). Type of data set: biochemical. Conditions: 20 µmol L^−1 compound, 1 µmol L^−1 LbOYE, 100 µmol L^−1 NADPH; substrates NEM and O2. As to the method:
The initial rates were obtained through the decay of the band at 340 nm referring to the maximum absorption of the NADPH (Nicotinamide Adenine Dinucleotide Phosphate) reducer, as previously reported. Solutions containing 1 µmol L^−1 of LbOYE, DMSO or 20 µmol L^−1 of the tested compounds from a stock solution at a concentration of 5 mmol L^−1 in DMSO were prepared in the presence and absence of the substrate N-Ethylmaleimide (NEM). These solutions were left for 30 min at room temperature. After 30 min, the NADPH reducer was added at a final concentration of 100 µmol L^−1.
Figure 7 Initial velocity (V0) for the reaction between 1 µmol L^−1 of LbOYE and 100 µmol L^−1 of NADPH in the presence of DMSO (control) or 20 µmol L^−1 of the compounds tested. Using (A) 100 µmol L^−1 of NEM in the presence of O2 and (B) absence of NEM in the presence of O2. Experiments carried out in phosphate buffer 25 mmol L^−1 pH 7.0, NaCl 100 mmol L^−1.

For data set [4], the target named is T1, LbOYE. The data set is described as follows: Suppression of intrinsic tryptophan fluorescence of LbOYE. The format is binding. The settings on record: 25 °C.
Source text: The recombinant LbOYE protein was produced using the methodology previously described. Briefly, the protein was expressed in strains of bacterial Escherichia coli BL21(DE3) through induction by IPTG using the pET28a:LbOYE vector. The enzyme was purified through a chromatography step of capture by nickel affinity, as the pET28a vector allows the expression of a polyhistidine fusion peptide, located at the N-terminal end of the protein. After affinity purification, the polyhistidine tail was excised by “overnight” incubation with thrombin, and the second purification step was performed using size exclusion chromatography. Purification was evaluated by SDS-PAGE and protein concentration was estimated by spectrophotometry.
The emission spectra of the intrinsic fluorescence of the tryptophan were recorded using a Shimadzu F-4500 spectrofluorometer in the range of 310–420 nm, with opening of slits of excitation and emission at 5.0 nm and λex = 295 nm. Interaction analyzes between LbOYE and ligands were performed at λmax = 333 nm.
as §4
The results were obtained from the fluorescence emission spectra of the intrinsic tryptophan probe in the presence of the compounds HL1^Ch, HL3^FPh, HL5^NO2Ph, [Au(HL1^Ch)2]Cl and [Ag(HL3^FPh)2]NO3. The bonding parameters were determined by the Hill plot, obtaining the dissociation constant (Kd) through the non-linear adjustment of the saturation curve to the experimental data. The double-log plot was used to determine the bonding constant and the number of bonding sites (n). It also allows the calculation of the bonding constant (Kb) and Kd from 1/Kb.
Equation (1)—Hill’s equation:(1) F0−F/F0=[L]/L+Kd
Equation (2)—Double-log:(2) logF0−F/F0=nlogKb−nlog1/L−(F0−F)[P0]/F
Equation (3)—Equation of Stern–Volmer:(3) F0/F=1+KSV[L]
The study of fluorescence quenching can be affected when the ligand has absorption bands that coincide with excitation and emission wavelengths of fluorescence. This interference is called the internal filter effect, which can be minimized using the procedure described by Equation (4). Fobs and Fcor are the fluorescence intensities at 333 nm measured and corrected, respectively; l represents the optical step where the absorption and emission of light occurs and C0 is the concentration of the ligand.
For the correction of the internal filter effect, were used the molar absorptivity coefficient values in the excitation (295 nm) and emission (333 nm) lengths, [λ/ε (L mol^−1 cm^−1)]; HL1^Ch (εex = 373 and εem = 117), HL3^FPh (εex = 1191 and εem = 57), HL5^NO2Ph (εex = 6162 and εem = 9124), Au1 (εex = 7045 and εem = 4008) and Ag3 (εex = 9431 and εem = 3281).

Data set [5] in a line: Solubility in organic solvents. The format is physicochemical.
Another data set deals with L. braziliensis. On the set-up: method as in PMID 32830445. Conditions: activity against L. braziliensis and cytotoxicity on macrophages; cited from earlier work.
The subject of data set [6] is Vero cells. Further details: method as in PMID 31152929. The settings on record: value for the reference drug in Table 5; cited from earlier work.

Where two headings read alike, the source gives them in different places.

T1 sequence (A4H6Z3 entry or part of it): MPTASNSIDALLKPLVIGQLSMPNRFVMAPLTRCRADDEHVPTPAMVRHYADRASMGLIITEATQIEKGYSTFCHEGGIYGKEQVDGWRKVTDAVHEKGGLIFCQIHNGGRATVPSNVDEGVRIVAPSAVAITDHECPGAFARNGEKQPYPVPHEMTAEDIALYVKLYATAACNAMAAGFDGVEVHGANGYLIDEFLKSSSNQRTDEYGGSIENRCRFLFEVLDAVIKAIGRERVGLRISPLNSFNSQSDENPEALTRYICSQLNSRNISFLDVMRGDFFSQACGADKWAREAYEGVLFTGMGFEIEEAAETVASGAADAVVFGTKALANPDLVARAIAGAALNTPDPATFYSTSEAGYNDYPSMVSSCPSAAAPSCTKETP

As usually defined, the IC50 is the concentration needed to halve the response being measured. For orientation: CC50 means the concentration that lowers cell viability or growth by half. Usually Kd stands for the constant that tells how readily two partners part at equilibrium. Consider `Cc1ccc(S(=O)(=O)NNC(NC2CCCCC2)=[S][Au+][S]=C(NNS(=O)(=O)c2ccc(C)cc2)NC2CCCCC2)cc1.[Cl-]` [Au1, [Au(HL1^Ch)2]Cl], for which, in the data set with Leishmania braziliensis, the IC50 is 77.38 ± 0.018 µM and the “SI L. braziliensis” value is on record as 0.26. Further, in the data set on Leishmania infantum, the IC50 stood at 105 ± 3.14 µM and the “SI L. infantum” value came out at 0.19. For the same compound, the “Solubility in buffer at the concentrations for the fluorescence experiments, in words” value in data set [1] was “passed this stage”. In addition, the midpoint of cytotoxicity with Vero cells [2], the CC50, lay at 19.9 µM. Besides, at LbOYE [3], the “Inhibition of LbOYE reaction (initial velocity V0), in words” value is “demonstrates capacity of inhibition, although less than the Ag3”. Also, the Kd on LbOYE [4] (Hill plot (n = 1), Equation (1), Tris-HCl pH 8.0, 2.5% DMSO, read-out: Kd * (Hill plot)) worked out at 110 ± 30 µM. Besides, the “Ksv *** (Stern–Volmer constant)” value at LbOYE [4] (Stern–Volmer, Equation (3)) is 2.4 ± 0.2 × 10^4. The Kd at LbOYE [4] (double log, Equation (2), Kd = 1/Kb, read-out: Kd ** (double log) (converted)) was 39 ± 3 µM. Further, on LbOYE [4] (double log, Equation (2)), the “n ** (number of bonding sites)” value is listed as 1.8 ± 0.1.

On to `Cc1ccc(S(=O)(=O)NNC(Nc2ccc(Cl)cc2)=[S][Au+][S]=C(NNS(=O)(=O)c2ccc(C)cc2)Nc2ccc(Cl)cc2)cc1.[Cl-]` [Au4, [Au(HL4^ClPh)2]Cl], for which, in the data set with Leishmania braziliensis, the IC50 was 277.6 ± 0.163 µM and the “SI L. braziliensis” value was 0.12. Also, in the data set with Leishmania infantum, the IC50 amounted to 38.18 ± 0.158 µM and the “SI L. infantum” value is 0.84. The “Solubility in solvents, in words” value in data set [5] is on record as “low solubility”. The CC50 in the data set on Vero cells [2] was found to be 32 µM.

Consider `C[C@@H]1[C@H](O)[C@@H](C)/C=C/C=C/C=C/C=C/C=C/C=C/C=C/[C@H](O[C@@H]2O[C@H](C)[C@@H](O)[C@H](N)[C@@H]2O)C[C@@H]2O[C@](O)(C[C@@H](O)C[C@@H](O)[C@H](O)CC[C@@H](O)C[C@@H](O)CC(=O)O[C@H]1C)C[C@H](O)[C@H]2C(=O)O` [amphotericin B], for which the SI with L. braziliensis is recorded as 6.8.

Consider Glucantime [reference compound], for which the IC50 was 176 to 192 µM in the data set on Leishmania braziliensis and 113 to 130 µM in the data set on Leishmania infantum. In addition, the CC50 in the data set with Vero cells [6] was 1630 µM.
